Test results taken from ChEMBL document CHEMBL1201862, “PubChem BioAssay data set” (2004).
Active and inactive are the calls of the source.

What was measured:
Aminopeptidase N = biological target: T1, Aminopeptidase N (Plasmodium falciparum FcB1/Columbia, UniProt O96935); assay: P. falciparum M1AAP inhibitors, biochemical, fluorogenic H-Leu-NHMec substrate, 1536-well (AID 1445); parameters: species or system Plasmodium falciparum 3D7, 3D7
T1 sequence (O96935 whole entry): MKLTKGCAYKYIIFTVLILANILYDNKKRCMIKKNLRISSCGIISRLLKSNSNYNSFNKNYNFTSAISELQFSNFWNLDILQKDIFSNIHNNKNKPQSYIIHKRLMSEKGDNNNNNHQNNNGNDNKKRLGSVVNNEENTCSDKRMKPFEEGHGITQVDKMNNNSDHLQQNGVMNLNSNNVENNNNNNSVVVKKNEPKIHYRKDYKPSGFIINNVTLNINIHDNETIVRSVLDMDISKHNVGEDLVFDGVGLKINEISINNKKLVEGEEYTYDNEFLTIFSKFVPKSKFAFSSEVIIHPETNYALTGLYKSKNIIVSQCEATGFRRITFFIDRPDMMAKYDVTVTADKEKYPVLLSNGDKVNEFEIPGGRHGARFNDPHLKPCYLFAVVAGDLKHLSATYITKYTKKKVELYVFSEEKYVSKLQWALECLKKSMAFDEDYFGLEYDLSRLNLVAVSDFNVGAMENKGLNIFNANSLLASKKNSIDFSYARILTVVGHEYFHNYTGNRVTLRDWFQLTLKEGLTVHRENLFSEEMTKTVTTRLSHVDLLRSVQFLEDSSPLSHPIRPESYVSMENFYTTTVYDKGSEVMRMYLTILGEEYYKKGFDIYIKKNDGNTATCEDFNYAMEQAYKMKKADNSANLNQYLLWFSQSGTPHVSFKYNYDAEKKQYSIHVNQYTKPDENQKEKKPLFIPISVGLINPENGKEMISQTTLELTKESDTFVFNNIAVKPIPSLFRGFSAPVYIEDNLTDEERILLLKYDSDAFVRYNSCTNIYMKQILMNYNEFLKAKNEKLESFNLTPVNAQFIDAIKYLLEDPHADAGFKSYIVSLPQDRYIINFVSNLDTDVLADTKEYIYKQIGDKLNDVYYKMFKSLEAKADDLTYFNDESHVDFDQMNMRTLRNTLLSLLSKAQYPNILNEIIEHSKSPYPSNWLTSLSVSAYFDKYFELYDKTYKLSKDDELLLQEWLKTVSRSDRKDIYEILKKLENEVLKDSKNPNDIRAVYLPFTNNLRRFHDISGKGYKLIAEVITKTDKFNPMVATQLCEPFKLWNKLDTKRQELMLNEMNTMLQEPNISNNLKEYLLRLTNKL

Procathepsin L = Procathepsin L (Homo sapiens, UniProt P07711); assay: cathepsin L inhibitors, dose response, counter-screen for M1/M17 aminopeptidase inhibitor project, biochemical, QFRET, 1536-well (AID 2214)
Sequence of Procathepsin L (P07711 whole entry): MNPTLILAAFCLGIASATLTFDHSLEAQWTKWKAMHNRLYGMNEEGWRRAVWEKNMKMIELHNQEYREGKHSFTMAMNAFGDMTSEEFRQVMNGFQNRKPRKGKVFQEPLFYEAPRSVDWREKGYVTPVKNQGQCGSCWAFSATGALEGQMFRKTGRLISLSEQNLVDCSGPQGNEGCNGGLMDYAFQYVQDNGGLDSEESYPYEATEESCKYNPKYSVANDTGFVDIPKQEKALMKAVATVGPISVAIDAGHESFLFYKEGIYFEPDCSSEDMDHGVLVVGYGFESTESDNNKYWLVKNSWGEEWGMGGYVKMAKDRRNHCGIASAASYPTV

Aspartyl aminopeptidase = Aspartyl aminopeptidase (Plasmodium falciparum 3D7, UniProt Q8I2J3); assay: Counterscreen for inhibitors of M1 and M17 aminopeptidases: QFRET-based biochemical high throughput dose response assay for inhibitors of the Plasmodium falciparum M18 Aspartyl Aminopeptidase (PFM18AAP). [Related PubChem assays: 1619 (Screening assay (M17LAP inhibitors).), 1445 (Screening assay (M1AAP inhibitors).)]
[1] = biological target: T2, Probable nicotinate-nucleotide adenylyltransferase (Staphylococcus aureus (strain N315), UniProt P65502); type: functional, Staphylococcus aureus subsp. aureus N315; conditions: read-out: IC50_Mean;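 for IC50 Mean: confirmatory dose-response retesting of NadD inhibitor hits first found in an ultra-high-throughput screen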
T2 sequence (P65502 whole entry): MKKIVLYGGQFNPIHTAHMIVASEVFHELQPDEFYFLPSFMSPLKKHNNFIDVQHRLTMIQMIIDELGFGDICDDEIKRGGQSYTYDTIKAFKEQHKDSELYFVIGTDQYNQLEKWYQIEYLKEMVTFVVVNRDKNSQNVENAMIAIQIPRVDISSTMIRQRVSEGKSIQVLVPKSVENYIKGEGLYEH

[2] = biological target: DNA (cytosine-5)-methyltransferase 1 (Homo sapiens, UniProt P26358); assay: DNMT1 methyltransferase inhibitors, confirmation, biochemical, fluorescent molecular beacon (AID 602386); type: functional
Sequence of DNA (cytosine-5)-methyltransferase 1 (P26358 whole entry): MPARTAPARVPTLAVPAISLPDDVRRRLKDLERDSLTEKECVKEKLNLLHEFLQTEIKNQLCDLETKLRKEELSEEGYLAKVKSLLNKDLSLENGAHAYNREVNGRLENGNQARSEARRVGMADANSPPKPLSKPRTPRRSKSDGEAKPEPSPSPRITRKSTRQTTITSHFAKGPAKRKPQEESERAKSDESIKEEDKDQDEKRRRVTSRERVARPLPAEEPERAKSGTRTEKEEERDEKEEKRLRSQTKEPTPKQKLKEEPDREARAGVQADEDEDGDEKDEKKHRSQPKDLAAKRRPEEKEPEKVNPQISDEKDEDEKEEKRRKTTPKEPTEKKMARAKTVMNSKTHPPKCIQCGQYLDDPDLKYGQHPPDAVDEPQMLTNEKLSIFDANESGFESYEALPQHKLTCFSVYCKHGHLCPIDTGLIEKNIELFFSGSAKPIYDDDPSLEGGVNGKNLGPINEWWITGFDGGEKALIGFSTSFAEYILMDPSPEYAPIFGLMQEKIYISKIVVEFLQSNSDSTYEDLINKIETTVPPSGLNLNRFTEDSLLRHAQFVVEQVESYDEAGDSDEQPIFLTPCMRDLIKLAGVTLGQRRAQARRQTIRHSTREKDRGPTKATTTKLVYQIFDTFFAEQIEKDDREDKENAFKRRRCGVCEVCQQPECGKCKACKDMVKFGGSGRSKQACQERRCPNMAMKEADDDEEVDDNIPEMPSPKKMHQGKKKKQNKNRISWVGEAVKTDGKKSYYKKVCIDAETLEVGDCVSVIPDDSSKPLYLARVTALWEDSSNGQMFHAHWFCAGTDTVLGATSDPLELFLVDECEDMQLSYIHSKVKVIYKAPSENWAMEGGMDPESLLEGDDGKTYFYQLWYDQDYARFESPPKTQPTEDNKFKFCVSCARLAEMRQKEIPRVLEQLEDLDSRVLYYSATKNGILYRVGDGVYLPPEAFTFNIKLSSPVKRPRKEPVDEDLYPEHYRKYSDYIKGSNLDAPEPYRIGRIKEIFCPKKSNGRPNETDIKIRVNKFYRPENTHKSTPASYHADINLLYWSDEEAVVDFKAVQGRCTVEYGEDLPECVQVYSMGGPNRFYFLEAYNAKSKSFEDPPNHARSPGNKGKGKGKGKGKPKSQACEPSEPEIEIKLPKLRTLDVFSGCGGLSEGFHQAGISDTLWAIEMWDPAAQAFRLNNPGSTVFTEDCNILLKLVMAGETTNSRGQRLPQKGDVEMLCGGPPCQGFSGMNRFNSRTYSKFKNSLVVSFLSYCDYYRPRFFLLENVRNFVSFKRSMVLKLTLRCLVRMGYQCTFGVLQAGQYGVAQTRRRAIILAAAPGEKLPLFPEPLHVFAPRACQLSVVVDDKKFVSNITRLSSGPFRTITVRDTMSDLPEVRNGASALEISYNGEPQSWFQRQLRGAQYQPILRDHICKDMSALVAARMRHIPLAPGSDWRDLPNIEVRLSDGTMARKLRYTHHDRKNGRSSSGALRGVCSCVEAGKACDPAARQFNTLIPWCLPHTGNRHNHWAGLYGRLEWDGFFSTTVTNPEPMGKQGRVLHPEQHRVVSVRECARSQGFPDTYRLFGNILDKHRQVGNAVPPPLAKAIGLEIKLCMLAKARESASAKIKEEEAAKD

[3] = biological target: T2, Probable nicotinate-nucleotide adenylyltransferase; type: functional, Staphylococcus aureus subsp. aureus N315
[4] = biological target: T3, Induced myeloid leukemia cell differentiation protein Mcl-1 (Homo sapiens, UniProt Q07820); type: functional
T3 sequence (Q07820 whole entry): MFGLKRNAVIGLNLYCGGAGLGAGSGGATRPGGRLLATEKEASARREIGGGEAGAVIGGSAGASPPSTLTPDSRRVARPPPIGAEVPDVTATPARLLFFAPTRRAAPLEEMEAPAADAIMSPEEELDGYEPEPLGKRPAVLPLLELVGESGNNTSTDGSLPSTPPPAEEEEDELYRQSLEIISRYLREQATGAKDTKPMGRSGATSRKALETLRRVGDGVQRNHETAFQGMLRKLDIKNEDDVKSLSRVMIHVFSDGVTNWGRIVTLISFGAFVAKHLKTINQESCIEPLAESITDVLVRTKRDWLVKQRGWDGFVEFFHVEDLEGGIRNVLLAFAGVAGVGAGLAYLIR

Bcl-2-like protein 1 = Bcl-2-like protein 1 (Homo sapiens, UniProt Q07817); assay: BCL-XL inhibitors, dose response, selectivity assay for MCL1 inhibitor project, biochemical, fluorescence polarization, 1536-well (AID 2218)
Sequence of Bcl-2-like protein 1 (Q07817 whole entry): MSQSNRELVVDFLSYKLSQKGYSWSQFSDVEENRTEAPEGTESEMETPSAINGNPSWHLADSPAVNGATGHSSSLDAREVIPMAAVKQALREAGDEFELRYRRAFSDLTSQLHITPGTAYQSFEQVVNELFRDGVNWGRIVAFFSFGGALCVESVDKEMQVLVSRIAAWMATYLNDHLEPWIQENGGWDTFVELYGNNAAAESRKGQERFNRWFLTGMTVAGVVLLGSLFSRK

[5] = biological target: T3, Induced myeloid leukemia cell differentiation protein Mcl-1; assay: MCL1-BIM BH3 interaction inhibitors, dose response, biochemical, fluorescence polarization, BIM-BH3 peptide, 1536-well (AID 2217)
Albumin = Albumin (Bos taurus, UniProt P02769); assay: Counterscreen for inhibitors of T-cell receptor (TCR)-CD3 interaction: Fluorescence-based biochemical high throughput dose response assay to identify inhibitors of T-cell receptor (TCR)-CD3 interaction using a TAMRA-labeled BSA probe.; type: functional
NADPH oxidase 1 = NADPH oxidase 1 (Homo sapiens, UniProt Q9Y5S8); assay: Luminescence-based cell-based dose response assay to identify inhibitors of NADPH oxidase 1 (NOX1).; type: functional
Sequence of NADPH oxidase 1 (Q9Y5S8 whole entry): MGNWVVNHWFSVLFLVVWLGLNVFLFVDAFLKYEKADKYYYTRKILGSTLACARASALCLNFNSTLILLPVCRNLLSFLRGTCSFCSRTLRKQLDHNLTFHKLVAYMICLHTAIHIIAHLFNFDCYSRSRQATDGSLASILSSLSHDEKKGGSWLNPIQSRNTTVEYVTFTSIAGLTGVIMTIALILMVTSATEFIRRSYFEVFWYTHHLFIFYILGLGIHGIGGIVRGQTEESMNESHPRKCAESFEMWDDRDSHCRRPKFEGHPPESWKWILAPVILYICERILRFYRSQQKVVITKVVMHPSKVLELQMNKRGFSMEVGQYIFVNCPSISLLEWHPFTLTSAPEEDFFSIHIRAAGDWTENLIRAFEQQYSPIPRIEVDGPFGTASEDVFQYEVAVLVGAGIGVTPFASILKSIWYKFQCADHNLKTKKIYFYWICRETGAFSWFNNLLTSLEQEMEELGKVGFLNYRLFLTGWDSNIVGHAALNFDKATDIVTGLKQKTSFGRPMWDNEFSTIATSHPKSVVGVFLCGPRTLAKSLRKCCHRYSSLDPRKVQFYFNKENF

[6] = biological target: T4, Rac GTPase-activating protein 1 (Homo sapiens, UniProt Q9H0H5); assay: MgcRacGAP GTPase-activating activity inhibitors, confirmation, biochemical, ADP Hunter fluorescence, primary and confirmatory (AID 624330); type: functional
T4 sequence (Q9H0H5 whole entry): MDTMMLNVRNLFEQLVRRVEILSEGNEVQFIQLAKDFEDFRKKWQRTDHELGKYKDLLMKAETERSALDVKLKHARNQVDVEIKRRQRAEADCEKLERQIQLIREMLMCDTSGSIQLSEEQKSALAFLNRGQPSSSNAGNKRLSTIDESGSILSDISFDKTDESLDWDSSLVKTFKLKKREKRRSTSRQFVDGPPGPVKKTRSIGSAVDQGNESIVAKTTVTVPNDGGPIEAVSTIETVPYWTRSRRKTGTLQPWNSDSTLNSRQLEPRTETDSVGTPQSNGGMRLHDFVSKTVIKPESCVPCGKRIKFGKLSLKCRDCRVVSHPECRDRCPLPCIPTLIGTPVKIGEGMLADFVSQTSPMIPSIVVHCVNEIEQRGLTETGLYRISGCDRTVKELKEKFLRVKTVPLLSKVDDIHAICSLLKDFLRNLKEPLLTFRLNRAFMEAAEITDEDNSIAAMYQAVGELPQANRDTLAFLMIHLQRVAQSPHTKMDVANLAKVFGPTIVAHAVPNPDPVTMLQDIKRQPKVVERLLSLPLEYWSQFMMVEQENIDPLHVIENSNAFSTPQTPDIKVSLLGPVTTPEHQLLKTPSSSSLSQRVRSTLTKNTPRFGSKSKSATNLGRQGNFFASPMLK

[7] = biological target: Low molecular weight phosphotyrosine protein phosphatase (Homo sapiens, UniProt P24666); type: functional; conditions: read-out: IC50_Mean;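 note: Dose-response confirmation assay measuring inhibition of LMPTP enzyme activity by fluorescence intensity read-out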
Sequence of Low molecular weight phosphotyrosine protein phosphatase (P24666 whole entry): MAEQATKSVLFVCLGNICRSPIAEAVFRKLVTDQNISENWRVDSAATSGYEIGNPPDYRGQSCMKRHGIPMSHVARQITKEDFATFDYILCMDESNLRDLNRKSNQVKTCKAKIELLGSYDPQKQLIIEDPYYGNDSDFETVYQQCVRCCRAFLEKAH

Estrogen receptor beta [8] = biological target: T5, Estrogen receptor beta (Homo sapiens, UniProt Q92731);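 note: recombinant ER-beta bound to coactivator SRC1 peptide in presence of estradiol agonist; inhibitors block coactivator peptide binding and lower the FRET signal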
T5 sequence (Q92731 whole entry): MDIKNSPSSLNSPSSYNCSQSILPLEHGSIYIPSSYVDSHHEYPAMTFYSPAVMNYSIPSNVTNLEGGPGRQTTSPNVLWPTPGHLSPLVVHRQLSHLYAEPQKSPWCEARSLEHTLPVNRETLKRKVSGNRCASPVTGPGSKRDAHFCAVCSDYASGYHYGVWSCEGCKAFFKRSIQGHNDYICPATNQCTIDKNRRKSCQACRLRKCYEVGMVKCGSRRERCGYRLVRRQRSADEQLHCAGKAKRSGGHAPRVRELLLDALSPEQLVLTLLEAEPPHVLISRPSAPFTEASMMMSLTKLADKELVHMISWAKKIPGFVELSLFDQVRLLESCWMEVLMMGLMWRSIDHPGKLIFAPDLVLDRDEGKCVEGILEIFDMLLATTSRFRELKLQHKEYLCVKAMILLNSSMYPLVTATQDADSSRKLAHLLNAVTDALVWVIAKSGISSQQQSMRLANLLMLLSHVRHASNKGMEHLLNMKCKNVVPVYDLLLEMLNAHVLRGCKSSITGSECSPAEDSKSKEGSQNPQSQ

Estrogen receptor beta [9] = biological target: T5, Estrogen receptor beta; assay: ERβ–SRC-3 coactivator interaction inhibitors, confirmation, orthogonal assay, biochemical, ELISA, streptavidin-HRP readout (AID 1060)
Estrogen receptor = Estrogen receptor (Homo sapiens, UniProt P03372);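 note: potency for inhibiting coactivator peptide recruitment to the receptor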
Sequence of Estrogen receptor (P03372 whole entry): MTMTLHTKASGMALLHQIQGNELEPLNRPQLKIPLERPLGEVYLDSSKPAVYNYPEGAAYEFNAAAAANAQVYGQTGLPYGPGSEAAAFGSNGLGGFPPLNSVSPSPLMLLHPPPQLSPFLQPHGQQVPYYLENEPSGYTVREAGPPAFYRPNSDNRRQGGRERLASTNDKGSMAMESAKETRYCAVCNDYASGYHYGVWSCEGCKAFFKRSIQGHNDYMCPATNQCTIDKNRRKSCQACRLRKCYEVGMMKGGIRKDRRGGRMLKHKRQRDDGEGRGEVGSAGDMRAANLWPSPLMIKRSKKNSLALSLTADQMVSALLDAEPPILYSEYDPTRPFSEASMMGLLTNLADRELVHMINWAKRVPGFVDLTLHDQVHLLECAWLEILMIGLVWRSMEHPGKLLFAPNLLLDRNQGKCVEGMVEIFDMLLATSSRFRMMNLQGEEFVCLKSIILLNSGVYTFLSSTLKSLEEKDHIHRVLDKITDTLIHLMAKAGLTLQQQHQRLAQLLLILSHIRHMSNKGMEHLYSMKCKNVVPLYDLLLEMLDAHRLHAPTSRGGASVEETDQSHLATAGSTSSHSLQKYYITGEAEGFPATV

[10] = A High Throughput Confirmatory Assay used to Identify Novel Compounds that Inhibit Mycobacterium Tuberculosis in the absence of Glycerol.; type: functional
Vero = assay: West Nile virus antiviral activity, cell-based, CPE readout (AID 1621); type: functional; conditions: Chlorocebus sabaeus
[11] = M. tuberculosis growth inhibition, HTS (AID 449762); type: functional
[12] = microbe, parasite or virus in culture; type: functional; conditions: Mycobacterium tuberculosis

For O=C(NCc1ccc2c(c1)OCO2)C1CCN(S(=O)(=O)c2ccc(Br)s2)CC1, the IC50 (Aminopeptidase N) was 2.11 µM (active), the IC50 (Procathepsin L) was > 59.6 µM (not active) and the IC50 (Aspartyl aminopeptidase) was > 73.5 µM (not active).

In the case of O=C(Nc1cccc(S(=O)(=O)NC2=NCCC2)c1)c1cc(-c2ccco2)nc2ccccc12, the IC50 [1] is reported as 22.7 µM (active), the IC50 [2] is reported as 3.71 µM (active) and the IC50 [3] is reported as 9.01 µM (active). The IC50 [4] was 1.09 µM (active), the IC50 (Bcl-2-like protein 1) was > 109 µM (not active) and the IC50 [5] was 4.26 µM (active). The IC50 (Albumin) was > 94.1 µM (inactive).

With CCN(CC)c1ccc(NC(=O)Nc2ccccc2)cc1 the IC50 (NADPH oxidase 1) was 0.176 µM (active) and the IC50 [6] was 45 µM (active).

In the case of N=c1c(C(=O)NCc2ccc3c(c2)OCO3)cc2c(=O)n3ccccc3nc2n1Cc1cccnc1, the IC50 [7] is reported as 17.1 µM (active), the IC50 (Estrogen receptor beta [8]) is reported as 5.48 µM (active) and the IC50 (Estrogen receptor beta [9]) is reported as > 50 µM (not active). For the same molecule, the IC50 [4] was 4.3 µM (active).

In the case of CN(CC(=O)NC(=O)NCc1ccco1)Cc1nc(O)c2ccccc2n1, the IC50 (Estrogen receptor) is reported as 13.7 µM (active).

For COc1ccc(C2c3[nH]c4ccccc4c3CCN2C(=O)c2cc3ncccn3n2)c(F)c1 (stereo unspecified), the IC50 [10] was > 100 µM (active), the IC50 (Vero) was 34.6 µM (active) and the IC50 [11] was > 100 µM (active). For the same molecule, the CC50 [12] was > 40 µM (active).
